Assay results: patent US11642366B2, “Methods for preventing a serious health consequence and/or tissue damage after exposure to ionizing radiation and/or chemotherapy” (GLYCOMIRA THERAPEUTICS, INC., priority 2018, dated 2023)

Assays:
myeloperoxidase (MPO) = assay: Study (1): tissue concentrations of myeloperoxidase (MPO) in tongue homogenate by ELISA; type: in vivo, mouse (BDF1 male); settings: 30 mg/kg SQ once daily day -2 to 7; 20 Gy; day 8; vehicle/irradiated 50%
Description: Prior to the x-ray irradiation, all animals except the healthy control group were gently guided into a restrainer for short durations. This behavioral training was held once daily for two days and it was designed to reduce potential stresses on the animals during the once daily irradiation session. For head-only irradiation, the restrainers containing the animals were shielded with a lead block that had rectangular holes to expose the head. X-rays were generated by RS2000 Biological Research Irradiator (Rad Source Technologies, GA) with parameters set as 160 kV/25 mA. For study (1), the animals were divided into 4 groups (10 mice for each group)—vehicle (phosphate buffered saline) treated healthy, vehicle treated ROM, GM-1111 treated ROM, and HA treated ROM. […]
(§1) Body weights of the animals were measured every other day from 2 days prior to the first irradiation day (day 0). Clinical signs were monitored every day during the entire experimental period. […]
All tongue samples were thawed on ice prior to homogenization. […] The total protein concentration of the supernatant was measured for each sample using the Pierce™ Protein Assay kit. Tissue concentrations of IL-6 and myeloperoxidase (MPO) were then determined with commercially available ELISA kits: IL-6 (BioLegend, CA) and MPO (R&D Systems, MN). […]

[1] = test system: ROM (radiation induced oral mucositis) in the tongue; assay: Study (1): single dose x-ray irradiation induced ROM, necropsy and histology of the tongue; type: in vivo, mouse (BDF1 male); settings: 30 mg/kg SQ once daily day -2 to 7
Description: Modified hyaluronan (referred to herein as GM-1111) used to treat the animals is a sulfated hyaluronan methylated at the primary C-6 hydroxyl position of an N-acetyl-glucosamine residue and having a molecular weight of approximately 5.5 kDa.
Approximately 7-8 weeks of old male BDF1 (B6D2F1) mice were purchased from Charles River Laboratories (MA). These animals were housed in a room with fully controlled environment (temperature, humidity, and light/dark cycle). The feed and water were freely accessible to all animals throughout the entire study period. All animals were acclimatized for one week prior to the irradiation and they were approximately 8-10 weeks old at the time of the study. The experimental protocol (16-07008) was approved by the University of Utah Institutional Animal Care and Use Committee (IACUC). […]
as §1
Histological observations were graded for each category and the sum of these grades was used to designate the severity of each sample. The resulting severity scores from all irradiation groups were analyzed with Kruskal-Wallis test followed by Dunnett-type multiple comparison test using nparcomp package. […]

With Hyaluronic acid [HA] the “Animals with higher than normal range of MPO in the tongue” value (myeloperoxidase (MPO)) was “about 70%”, the “Overall effect against ROM (necropsy, MPO, histology)” value ([1]; 20 Gy) was “did not show any measurable therapeutic benefits” and the “Ulcerative lesions in the tongue at necropsy (Toluidine Blue staining)” value ([1]; 20 Gy head-only x-ray on day 0, necropsy day 8) was “severe ulcerative lesions in the tongue similar to the vehicle treated animals”.
